4 molecules from patent US4547492A, “1-N-(ω-Amino-α-hydroxyalkanoyl-2',3'-dideoxykanamycin A and pharmaceutical composition containing same” (Zaidan Hojin Biseibutsu Kagaku Kenkyu Kai, priority 1983, dated 1985) can be followed below.

≈ marks a conversion by molar mass, not a printed value. Read-outs that look alike come from different tables or passages of the source.

One data set has as its system Escherichia coli J5R11-2. As to the kind of experiment: microbe, parasite or virus in culture. As to conditions: J5R112, 18 h. The protocol: (§1) For comparison purpose, the minimum inhibitory concentrations (MIC.) of 1-N-(L-4-amino-2-hydroxybutyryl)-kanamycin A, namely amikacin and of 2',3'-dideoxykanamycin A (abbreviated as DKA) are also shown in Table 1.
(§2) The minimum inhibitory concentrations (mcg/ml) of these kanamycin A derivatives against the various bacteria were determined according to a standard serial dilution method on a nutrient agar medium at 37° C., the estimation being made after 18 hours incubation.

The test system of data set [1] is Pseudomonas aeruginosa K-Ps 102. Nature of the data set: MIC, serial dilution on nutrient agar. The class given is cell-based. The protocol: as §1, §2
In data set [2] the test system is Staphylococcus aureus Ap 01. As to the kind of experiment: MIC, serial dilution on nutrient agar. Type of data set: cell-based. The protocol: as §1, §2
The next data set concerns Escherichia coli ML 1630. Nature of the data set: MIC, serial dilution on nutrient agar. Type of data set: cell-based. The following applies: ML1630, E. coli ML 1630, 37° C., 18 hours. The protocol: as §1, §2
Data set [3] has as its system Bacillus subtilis PCI 219. Nature of the data set: MIC, serial dilution on nutrient agar. Type of data set: cell-based. As to conditions: PCI219, B. subtilis PCI 219, 37° C., 18 hours. The protocol:
as §1, §2

The subject of data set [4] is Serratia marcescens I-0139. Nature of the data set: MIC, serial dilution on nutrient agar. Type of data set: cell-based. As to conditions: I0139, S. marcescens I-0139, 37° C., 18 hours. The protocol:
as §1, §2

A further data set has as its system Serratia sp. 4. Nature of the data set: MIC, serial dilution on nutrient agar. The class given is cell-based. As to conditions: 37° C., 18 hours. The protocol: as §1, §2
The subject of data set [5] is Staphylococcus aureus 209P. As to the kind of experiment: MIC, serial dilution on nutrient agar. As to conditions: S. aureus 209P, 37° C., 18 hours. The class given is cell-based. The protocol: as §1, §2
Data set [6] has as its system Serratia marcescens I-0111. As to the kind of experiment: MIC, serial dilution on nutrient agar. Type of data set: cell-based. The protocol:
as §1, §2

Data set [7] has as its system Serratia marcescens I-0115. Nature of the data set: MIC, serial dilution on nutrient agar. The class given is cell-based. The protocol: as §1, §2
A further data set has as its system Escherichia coli ML R 81. As to the kind of experiment: MIC, serial dilution on nutrient agar. The class given is cell-based. The protocol:
as §1, §2

A further data set concerns Escherichia coli ML 1629. Nature of the data set: MIC, serial dilution on nutrient agar. Type of data set: cell-based. The protocol:
as §1, §2

In data set [8] the test system is Pseudomonas aeruginosa A3. As to the kind of experiment: MIC, serial dilution on nutrient agar. Type of data set: cell-based. As to conditions: P. aeruginosa A3, 37° C., 18 hours. The protocol: as §1, §2
In a further data set the test system is Proteus rettgeri GN 311. As to the kind of experiment: MIC, serial dilution on nutrient agar. The class given is cell-based. The following applies: Providencia rettgeri, GN311, 37° C., 18 hours. The protocol:
as §1, §2

For data set [9], the system named is Pseudomonas aeruginosa H9. As to the kind of experiment: MIC, serial dilution on nutrient agar. Type of data set: cell-based. The protocol: as §1, §2
In data set [10] the test system is Serratia marcescens I-0162. As to the kind of experiment: MIC, serial dilution on nutrient agar. Type of data set: cell-based. The protocol: as §1, §2
Data set [11] concerns Pseudomonas aeruginosa B-13. Nature of the data set: MIC, serial dilution on nutrient agar. Type of data set: cell-based. The protocol: as §1, §2
Data set [12] is described as follows: acute toxicity by intravenous injection in mice. As to conditions: mouse, in vivo.
Where [13] appears, read: I0111, S. marcescens I-0111, nutrient agar, 37° C., 18 hours, read-out: MIC.
Setting [14] is: I0115, S. marcescens I-0115, nutrient agar, 37° C., 18 hours, read-out: MIC.
[15] abbreviates: P. aeruginosa H9, nutrient agar, 37° C., 18 hours, read-out: MIC.
Where [16] appears, read: AP01, S. aureus Ap 01, nutrient agar, 37° C., 18 hours, read-out: MIC.
The mark [17] stands for this setting: MLR81, E. coli ML R 81, nutrient agar, 37° C., 18 hours, read-out: MIC.
Where [18] appears, read: ML1629, E. coli ML 1629, nutrient agar, 37° C., 18 hours, read-out: MIC.

For `NCC[C@H](O)C(=O)N[C@@H]1C[C@H](N)[C@@H](O[C@H]2O[C@H](CN)[C@@H](O)[C@H](O)[C@H]2O)[C@H](O)[C@H]1O[C@H]1O[C@H](CO)[C@@H](O)[C@H](N)[C@H]1O` [Amikacin, 1-N-(L-4-amino-2-hydroxybutyryl)-kanamycin A, reference compound], the MIC is 1.56 µg/mL (≈ 2.66 µM) in the data set with Escherichia coli J5R11-2; 6.25 µg/mL (≈ 10.7 µM) in [1] (KPS102, P. aeruginosa K-Ps 102, nutrient agar, 37° C., 18 hours, read-out: MIC.); 1.56 µg/mL (≈ 2.66 µM) in [2] (AP01, 18 h); 3.13 µg/mL (≈ 5.34 µM) against Escherichia coli ML 1630; 0.39 µg/mL (≈ 0.666 µM) in [3]; 100 µg/mL (≈ 171 µM) in [4]. The MIC was 3.13 µg/mL (≈ 5.34 µM) against Serratia sp. 4; 0.78 µg/mL (≈ 1.33 µM) in data set [5]; 25 µg/mL (≈ 42.7 µM) in data set [6] (setting [13]); 50 µg/mL (≈ 85.4 µM) in [7] (setting [14]); 1.56 µg/mL (≈ 2.66 µM) in the data set on Escherichia coli ML R 81 (MLR81, 18 h); 1.56 µg/mL (≈ 2.66 µM) in the data set on Escherichia coli ML 1629 (ML1629, 18 h). Also, the MIC in [8] was < 0.2 µg/mL; with Proteus rettgeri GN 311, 0.39 µg/mL (≈ 0.666 µM); in [9] (setting [15]) it was 6.25 µg/mL (≈ 10.7 µM); in [10] (I0162, S. marcescens I-0162, nutrient agar, 37° C., 18 hours, read-out: MIC.), 50 µg/mL (≈ 85.4 µM); in [11] (B13, P. aeruginosa B-13, nutrient agar, 37° C., 18 hours, read-out: MIC.) it was 6.25 µg/mL (≈ 10.7 µM).

`NCC[C@H](O)C(=O)N[C@@H]1C[C@H](N)[C@@H](O[C@@H]2CC[C@H](O)[C@@H](CN)O2)[C@H](O)[C@H]1O[C@H]1O[C@H](CO)[C@@H](O)[C@H](N)[C@H]1O` [AHDK] showed an LD50 in data set [12] of 326 mg/kg. Further, the MIC against Escherichia coli J5R11-2 came to 0.78 µg/mL (≈ 1.41 µM); in data set [1] (KPS102, 18 h), 6.25 µg/mL (≈ 11.3 µM); in data set [2] (setting [16]) it was 0.39 µg/mL (≈ 0.704 µM); in the data set on Escherichia coli ML 1630 it was 1.56 µg/mL (≈ 2.82 µM); in data set [3], 0.2 µg/mL (≈ 0.361 µM); in data set [4], 12.5 µg/mL (≈ 22.6 µM). Further, the MIC with Serratia sp. 4 came out at 1.56 µg/mL (≈ 2.82 µM); in data set [5], 0.1 µg/mL (≈ 0.181 µM); in data set [6] (I0111, 18 h), 6.25 µg/mL (≈ 11.3 µM); in data set [7] (I0115, 18 h), 6.25 µg/mL (≈ 11.3 µM); in the data set with Escherichia coli ML R 81 (setting [17]), 1.56 µg/mL (≈ 2.82 µM); in the data set with Escherichia coli ML 1629 (setting [18]) it was 1.56 µg/mL (≈ 2.82 µM). Further, the MIC was determined as 0.78 µg/mL (≈ 1.41 µM) in data set [8]; 0.39 µg/mL (≈ 0.704 µM) in the data set on Proteus rettgeri GN 311; 3.13 µg/mL (≈ 5.65 µM) in [9] (setting [15]); 6.25 µg/mL (≈ 11.3 µM) in data set [10] (I0162, 18 h); 12.5 µg/mL (≈ 22.6 µM) in data set [11] (B13, 18 h).

For `NC[C@H]1O[C@H](O[C@H]2[C@H](O)[C@@H](O[C@H]3O[C@H](CO)[C@@H](O)[C@H](N)[C@H]3O)[C@H](N)C[C@@H]2N)CC[C@@H]1O` [DKA, 2',3'-dideoxykanamycin A], the MIC worked out at 3.12 µg/mL (≈ 6.89 µM) in the data set on Escherichia coli J5R11-2; 6.25 µg/mL (≈ 13.8 µM) in [1] (KPS102, 18 h); 3.13 µg/mL (≈ 6.92 µM) in data set [2] (setting [16]); 3.13 µg/mL (≈ 6.92 µM) in the data set with Escherichia coli ML 1630; 0.39 µg/mL (≈ 0.862 µM) in [3]; 1.56 µg/mL (≈ 3.45 µM) in [5]. The MIC came to 3.13 µg/mL (≈ 6.92 µM) in the data set on Escherichia coli ML R 81 (setting [17]); 1.56 µg/mL (≈ 3.45 µM) in the data set on Escherichia coli ML 1629 (setting [18]); 1.56 µg/mL (≈ 3.45 µM) in [8]; 6.25 µg/mL (≈ 13.8 µM) in data set [9] (H9, 18 h); 12.5 µg/mL (≈ 27.6 µM) in data set [11] (B13, 18 h).

Regarding `NC[C@H](O)C(=O)N[C@@H]1C[C@H](N)[C@@H](O[C@@H]2CC[C@H](O)[C@@H](CN)O2)[C@H](O)[C@H]1O[C@H]1O[C@H](CO)[C@@H](O)[C@H](N)[C@H]1O` [ISDK, 1-N-(L-3-amino-2-hydroxy-propionyl)-2',3'-dideoxykanamycin A], the LD50 in data set [12] stood at 240 mg/kg. The MIC with Escherichia coli J5R11-2 was found to be 0.78 µg/mL (≈ 1.45 µM); in data set [1] (KPS102, 18 h) it was 6.25 µg/mL (≈ 11.6 µM); in data set [2] (setting [16]), 0.78 µg/mL (≈ 1.45 µM); against Escherichia coli ML 1630, 3.13 µg/mL (≈ 5.8 µM); in data set [3], 0.39 µg/mL (≈ 0.723 µM); in [4], 6.25 µg/mL (≈ 11.6 µM). Moreover, the MIC is 1.56 µg/mL (≈ 2.89 µM) in the data set on Serratia sp. 4; 0.2 µg/mL (≈ 0.371 µM) in data set [5]; 3.13 µg/mL (≈ 5.8 µM) in [6] (setting [13]); 3.13 µg/mL (≈ 5.8 µM) in [7] (setting [14]); 1.56 µg/mL (≈ 2.89 µM) in the data set with Escherichia coli ML R 81 (setting [17]); 1.56 µg/mL (≈ 2.89 µM) in the data set on Escherichia coli ML 1629 (setting [18]). The MIC in data set [8] was determined as 0.78 µg/mL (≈ 1.45 µM); in the data set on Proteus rettgeri GN 311, 0.39 µg/mL (≈ 0.723 µM); in [9] (setting [15]), 3.13 µg/mL (≈ 5.8 µM); in data set [10] (I0162, 18 h), 6.25 µg/mL (≈ 11.6 µM); in [11] (B13, 18 h), 12.5 µg/mL (≈ 23.2 µM).
